Target: T1, Human orexin receptor type 2 (Homo sapiens, UniProt O43614)
T1 construct: expressed in transfected cells; host or cells: CHO cells (transient expression, with apoaequorin)
T1 sequence (O43614 1-444): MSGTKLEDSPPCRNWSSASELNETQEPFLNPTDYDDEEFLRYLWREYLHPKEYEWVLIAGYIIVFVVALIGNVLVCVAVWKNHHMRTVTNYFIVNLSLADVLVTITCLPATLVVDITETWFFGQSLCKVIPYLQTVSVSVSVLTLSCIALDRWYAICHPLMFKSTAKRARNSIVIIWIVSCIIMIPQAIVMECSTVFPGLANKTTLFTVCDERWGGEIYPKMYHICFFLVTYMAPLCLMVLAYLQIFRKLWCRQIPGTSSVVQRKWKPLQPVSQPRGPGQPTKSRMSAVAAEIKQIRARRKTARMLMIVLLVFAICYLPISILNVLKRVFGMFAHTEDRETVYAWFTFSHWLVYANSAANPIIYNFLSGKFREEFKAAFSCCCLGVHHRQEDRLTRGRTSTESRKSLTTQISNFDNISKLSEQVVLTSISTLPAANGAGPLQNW
Assay: Test Example 2: agonist activity for orexin receptor type 2 (aequorin luminescence, intracellular calcium mobilization in CHO cells)
Assay type: cell-based
Conditions: compound 10 μM; relative percentage of luminescence for the luminescence (100%) of Orexin A (100 μM); CHO cells transiently expressing human orexin receptor type 2 and apoaequorin
Description: Test Example 2: Measurement of Agonist Activity for Orexin Receptor Type 2
Human orexin receptor type 2 and apoaequorin were transiently expressed in CHO cells, and the agonist activity was evaluated based on intracellular calcium mobilization with ligand stimulation. The CHO cells transiently-expressed human orexin receptor type 2 and apoaequorin were seeded on a 384-well plate by 2,000 cells/well, and then incubated for 16-22 hours. After the plate was returned to room temperature, Coelenterazine hcp (final concentration: 1 μM) was added to the plate, and the plate was allowed to stand at room temperature for 2 hours. And then, Orexin A (PEPTIDE INSTITUTE, INC., Lot. 711101) or each test compound was added to the plate, and the luminescence of the cells was measured with FDSS7000 (Hamamatsu Photonics K.K.), wherein Orexin A and each test compound were dissolved in DMSO (final concentration: 0.1%), and diluted with a buffer (Hanks, 20 mM HEPES, 0.1% BSA). The agonist activity of each test compound for orexin receptor type 2 was calculated as relative percentage of luminescence for the luminescence (100%) of Orexin A (100 μM).
Each agonist activity of the compounds obtained in Examples (10 μM) for orexin receptor type 2 is shown in the table below as relative percentage of luminescence for the luminescence (100%) of Orexin A (100 μM).

Row | SMILES | Agonist Activity (%)
1 | CC(C)N1CC[C@H](O[C@H]2CCCC(F)(F)[C@@H]2NC(=O)N2C[C@H]3CC(c4ccccc4)C[C@H]3C2)C1 (stereo partly drawn) [Example 28, (3aR,5R,6aS)—N-[(1R,6S)-2,2-difluoro-6-{[(3S)-1-(propan-2-yl)pyrrolidin-3-yl]oxy}cyclohexyl]-5-phenylhexahydropenta[c]pyrrole-2(1H)-carboxamide] | 400
2 | Cc1nc(C2C[C@@H]3CN(C(=O)N[C@@H]4[C@@H](N(C)[C@H]5CCN(C(C)C)C5)CCCC4(F)F)C[C@@H]3C2)no1 (stereo partly drawn) [Example 31, (3aR,5R,6aS)—N-[(1R,6S)-2,2-difluoro-6-{methyl[(3S)-1-(propan-2-yl)pyrrolidin-3-yl]amino}cyclohexyl]-5-(5-methyl-1,2,4-oxadiazol-3-yl)hexahydropenta[c]pyrrole-2(1H)-carboxamide] | 252
3 | CC(C)N1CC[C@H](N(C)[C@H]2CCCC(F)(F)[C@@H]2NC(=O)N2C[C@H]3CC(c4ccccc4)C[C@H]3C2)C1 (stereo partly drawn) [Example 33, (3aR,5R,6aS)—N-[(1R,6S)-2,2-difluoro-6-{methyl[(3S)-1-(propan-2-yl)pyrrolidin-3-yl]amino}cyclohexyl]-5-phenylhexahydropenta[c]pyrrole-2(1H)-carboxamide] | 343
4 | Cc1nc(C2C[C@H]3CC(C(=O)N[C@@H]4[C@@H](O[C@H]5CCN(C(C)C)C5)CCCC4(F)F)C[C@H]3C2)no1 (stereo partly drawn) [Example 32, (3aR,5R,6aS)—N-[(1R,6S)-2,2-difluoro-6-{[(3S)-1-(propan-2-yl)pyrrolidin-3-yl]oxy}cyclohexyl]-5-(5-methyl-1,2,4-oxadiazol-3-yl)hexahydropenta[c]pyrrole-2(1H)-carboxamide] | 345
5 | CC(C)N1CCN([C@H]2CCCC(F)(F)[C@@H]2NC(=O)N2C[C@@H]3CN(c4ccccc4F)C[C@@H]3C2)CC1 [Example 19, (3aR,6aS)—N-{(1R,6S)-2,2-difluoro-6-[4-(propan-2-yl)piperazin-1-yl]cyclohexyl}-5-(2-fluorophenyl)hexahydropyrrolo[3,4-c]pyrrole-2(1H)-carboxamide] | 390
6 | CC(C)N1CC[C@H](N(C)[C@H]2CCCC(F)(F)[C@@H]2NC(=O)N2C[C@@H]3CN(c4ccccc4)C[C@@H]3C2)C1 [Example 34, (3aR,6aS)—N-[(1R,6S)-2,2-difluoro-6-{methyl[(3S)-1-(propan-2-yl)pyrrolidin-3-yl]amino}cyclohexyl]-5-phenylhexahydropyrrolo[3,4-c]pyrrole-2(1H)-carboxamide] | 341
7 | CC(C)N1CC[C@H](O[C@H]2CCCC(F)(F)[C@@H]2NC(=O)N2C[C@@H]3CN(c4ccccc4)C[C@@H]3C2)C1 [Example 29, (3aR,6aS)—N-[(1R,6S)-2,2-difluoro-6-{[(3S)-1-(propan-2-yl)pyrrolidin-3-yl]oxy}cyclohexyl]-5-phenylhexahydropyrrolo[3,4-c]pyrrole-2(1H)-carboxamide] | 393

Results, then the compound that gave them:

Row | Agonist Activity (%) | SMILES
8 | 396 | CC(C)N1CCN([C@H]2CCCC(F)(F)[C@@H]2NC(=O)N2C[C@H]3C[C@@H](c4ccccn4)C[C@H]3C2)CC1 [Example 25, (3aR,5R,6aS)—N-{(1R,6S)-2,2-difluoro-6-[4-(propan-2-yl)piperazin-1-yl]cyclohexyl}-5-(pyridin-2-yl)hexahydropenta[c]pyrrole-2(1H)-carboxamide]
9 | 414 | Cc1cccc([C@@H]2C[C@@H]3CN(C(=O)N[C@@H]4[C@@H](N5CCN(C(C)C)CC5)CCCC4(F)F)C[C@@H]3C2)c1 [Example 24, (3aR,5R,6aS)—N-{(1R,6S)-2,2-difluoro-6-[4-(propan-2-yl)piperazin-1-yl]cyclohexyl}-5-(3-methylphenyl)hexahydropenta[c]pyrrole-2(1H)-carboxamide]
10 | 345 | CC(C)N1CCN([C@H]2CCCC(F)(F)[C@@H]2NC(=O)N2C[C@H]3C[C@@H](c4ncccn4)C[C@H]3C2)CC1 [Example 26, (3aR,5R,6aS)—N-{(1R,6S)-2,2-difluoro-6-[4-(propan-2-yl)piperazin-1-yl]cyclohexyl}-5-(pyrimidin-2-yl)hexahydropenta[c]pyrrole-2(1H)-carboxamide]
11 | 374 | Cc1nc([C@@H]2C[C@@H]3CN(C(=O)N[C@@H]4[C@@H](N5CCN(C(C)C)CC5)CCCC4(F)F)C[C@@H]3C2)no1 [Example 30, (3aR,5R,6aS)—N-{(1R,6S)-2,2-difluoro-6-[4-(propan-2-yl)piperazin-1-yl]cyclohexyl}-5-(5-methyl-1,2,4-oxadiazol-3-yl)hexahydropenta[c]pyrrole-2(1H)-carboxamide]
